Reference: patent US9199946B2, “Pyrimidinone carboxamide inhibitors of endothelial lipase” (BRISTOL-MYERS SQUIBB COMPANY, priority 2012, dated 2015)
Read-outs that look alike come from different tables or passages of the source.

Molecular target: T1, Endothelial lipase (EL) (Homo sapiens, UniProt Q9Y5X9)
T1 construct: HT-1080 cells, which were transformed by RAGE technology (Athersys) to overexpress endogenous EL; endogenous in cells; conditioned medium used as the enzyme source
T1 sequence (Q9Y5X9 21-500): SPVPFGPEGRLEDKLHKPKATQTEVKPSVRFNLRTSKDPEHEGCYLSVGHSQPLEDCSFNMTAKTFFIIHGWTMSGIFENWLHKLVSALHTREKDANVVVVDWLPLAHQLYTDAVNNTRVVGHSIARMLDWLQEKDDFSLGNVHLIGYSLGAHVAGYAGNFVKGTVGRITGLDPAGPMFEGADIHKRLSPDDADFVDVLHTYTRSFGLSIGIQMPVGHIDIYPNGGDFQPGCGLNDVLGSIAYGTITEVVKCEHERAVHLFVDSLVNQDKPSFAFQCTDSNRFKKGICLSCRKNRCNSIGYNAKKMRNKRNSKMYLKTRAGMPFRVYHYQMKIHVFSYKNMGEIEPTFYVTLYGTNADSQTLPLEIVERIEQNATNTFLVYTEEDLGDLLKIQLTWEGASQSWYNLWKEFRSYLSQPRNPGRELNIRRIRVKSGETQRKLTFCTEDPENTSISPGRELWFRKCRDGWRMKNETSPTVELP
Test: Endothelial lipase (EL) enzymatic assay with fluorescent substrate A10070 in DMPG vesicles
Format: biochemical
Description: Endothelial lipase activity was measured using a fluorescent substrate, A10070, (Invitrogen, CA) doped into an artificial vesicle containing DMPG (Avanti Polar Lipids) as the excipient. Vesicles were prepared by combining 285 μL of 1 mM DMPG in a 1:1 mixture of MeOH and CHCl3 with 15 μL of 1 mM A10070 in a 1:1 mixture of MeOH and CHCl3. The mixture was dried under nitrogen and resuspended in 150 μL of 50 mM HEPES pH 8.0 buffer containing 100 mM NaCl and 0.2 mM EDTA. The sample was allowed to sit at rt for 15 min and then was sonicated 3×4 mins on ice with a Branson Sonicator using duty cycle 1. This preparation provides vesicles with a mole fraction of 0.05 for the FRET substrate.
The enzymatic assay was measured using white, opaque 96-well half area plates. Each well contained 60 μL of assay buffer (50 mM HEPES pH 8.0, 50 mM NaCl and 1 mM CaCl2) and 2 ul of a DMSO solution containing compound of interest. Conditioned media obtained from HT-1080 cells, which were transformed by RAGE technology (Athersys) to overexpress endogenous EL, was added and the reaction was allowed to incubate for 20 min at 37° C. with gentle agitation. The reaction was started by the addition of 20 μL of a 1:4 dilution of vesicles. The final total reaction volume was 100 μL. The reaction rates were measured on a Gemini plate reader with an excitation wavelength of 488 nm and an emission of 530 nm. Readings were taken every 20 seconds for 10 min with agitation between each reading. The slope of the linear portion of the readout was used to calculate the rate of the reaction.

[1] = conditioned media from HT-1080 cells overexpressing endogenous EL, 20 min preincubation at 37° C., read-out: EL IC50
[2] = range observed in the EL assay, read-out: EL IC50 values

Row | SMILES | IC50 [1] [µM] | IC50 [2] [µM]
1 | Nc1c(C(=O)NC2CCN(c3ccc(C(F)(F)F)cn3)C2)[nH]c(=O)[nH]c1=O (stereo not drawn) [Example 190, 5-amino-2,6-dioxo-N-(1-(5-(trifluoromethyl)pyridin-2-yl)pyrrolidin-3-yl)-1,2,3,6-tetrahydropyrimidine-4-carboxamide] | 0.276 | ≤ 10
2 | Nc1c(C(=O)N[C@@H]2CCCc3c(CCc4ccccc4)cccc32)[nH]c(=O)[nH]c1=O [Example 111, (R)-5-amino-2,6-dioxo-N-(5-phenethyl-1,2,3,4-tetrahydronaphthalen-1-yl)-1,2,3,6-tetrahydropyrimidine-4-carboxamide] |  | ≤ 10
3 | O=C(N[C@H]1CC[C@@H](c2ccccc2)CC1)c1[nH]c(=O)[nH]c(=O)c1NC1CCCc2ccccc21 (stereo partly drawn) [Example 224, 2,6-dioxo-N-(cis-4-phenylcyclohexyl)-5-(1,2,3,4-tetrahydronaphthalen-1-ylamino)-1,2,3,6-tetrahydropyrimidine-4-carboxamide] |  | ≤ 10
4 | O=C(NC1CCC(c2cccc(OCc3ccccc3)c2)C1)c1[nH]c(=O)[nH]c(=O)c1O (stereo not drawn) [Example 282, N-(3-(3-(benzyloxy)phenyl)cyclopentyl)-5-hydroxy-2,6-dioxo-1,2,3,6-tetrahydropyrimidine-4-carboxamide] |  | ≤ 10
5 | Nc1c(C(=O)NC2CCC(n3cc(-c4ccc(Br)cc4)cn3)C2)[nH]c(=O)[nH]c1=O (stereo not drawn) [Example 140, 5-amino-N-(3-(4-(4-bromophenyl)-1H-pyrazol-1-yl)cyclopentyl)-2,6-dioxo-1,2,3,6-tetrahydropyrimidine-4-carboxamide] |  | ≤ 10
6 | COc1ccc(C2CCC(NC(=O)c3[nH]c(=O)[nH]c(=O)c3N)C2)cc1 (stereo not drawn) [Example 107, 5-amino-N-(3-(4-methoxyphenyl)cyclopentyl)-2,6-dioxo-1,2,3,6-tetrahydropyrimidine-4-carboxamide] |  | ≤ 10
7 | COc1ccc(-c2ccc([C@@H]3CC[C@H](NC(=O)c4[nH]c(=O)[nH]c(=O)c4N)C3)cc2)cc1OC [Example 161, 5-amino-N-((1S,3R)-3-(3′,4′-dimethoxybiphenyl-4-yl)cyclopentyl)-2,6-dioxo-1,2,3,6-tetrahydropyrimidine-4-carboxamide] |  | ≤ 10
8 | O=C(N[C@H]1CC[C@@H](c2ccccc2)CC1)c1[nH]c(=O)[nH]c(=O)c1NCCO [Example 217, 5-(2-hydroxyethylamino)-2,6-dioxo-N-(cis-4-phenylcyclohexyl)-1,2,3,6-tetrahydropyrimidine-4-carboxamide] |  | ≤ 10
9 | COc1ccc2c(c1)C(NC(=O)c1[nH]c(=O)[nH]c(=O)c1N)CC2 (single isomer, unassigned) [Example 73, 5-amino-N-(6-methoxy-2,3-dihydro-1H-inden-1-yl)-2,6-dioxo-1,2,3,6-tetrahydropyrimidine-4-carboxamide] | 0.468 | ≤ 10
10 | Nc1c(C(=O)N[C@H]2CCCc3c(OCc4ccccc4)cccc32)[nH]c(=O)[nH]c1=O [Example 92, (S)-5-amino-N-(5-(benzyloxy)-1,2,3,4-tetrahydronaphthalen-1-yl)-2,6-dioxo-1,2,3,6-tetrahydropyrimidine-4-carboxamide] |  | ≤ 10
11 | O=C(N[C@H]1CC[C@@H](c2ccccc2)CC1)c1[nH]c(=O)n(CCC(F)(F)F)c(=O)c1O [Example 252, 5-hydroxy-2,6-dioxo-N-((1s,4s)-4-phenylcyclohexyl)-1-(3,3,3-trifluoropropyl)-1,2,3,6-tetrahydropyrimidine-4-carboxamide] |  | ≤ 10
12 | O=C(N[C@H]1CC[C@@H](c2ccccc2)CC1)c1[nH]c(=O)[nH]c(=O)c1NCCc1ccccc1Cl [Example 221, 5-(2-chlorophenethylamino)-2,6-dioxo-N-(cis-4-phenylcyclohexyl)-1,2,3,6-tetrahydropyrimidine-4-carboxamide] |  | ≤ 10
13 | Nc1c(C(=O)N[C@H]2CC[C@@H](c3ccc(-c4cnn(Cc5ccccc5)c4)cc3)C2)[nH]c(=O)[nH]c1=O (stereo in doubt) [Example 179, 5-amino-N-((1S,3R)-3-(4-(1-benzyl-1H-pyrazol-4-yl)phenyl)cyclopentyl)-2,6-dioxo-1,2,3,6-tetrahydropyrimidine-4-carboxamide] |  | ≤ 10
14 | Nc1c(C(=O)N[C@@H]2CC[C@H](c3ccc(-c4cccc5ncccc45)cc3)C2)[nH]c(=O)[nH]c1=O [Example 175, 5-amino-2,6-dioxo-N-((1R,3S)-3-(4-(quinolin-5-yl)phenyl)cyclopentyl)-1,2,3,6-tetrahydropyrimidine-4-carboxamide] | 0.496 | ≤ 10
15 | COC(=O)C1CCCC(NC(=O)c2[nH]c(=O)[nH]c(=O)c2N)C1 (stereo not drawn) [Example 58, methyl 3-(5-amino-2,6-dioxo-1,2,3,6-tetrahydropyrimidine-4-carboxamido) cyclohexanecarboxylate] |  | ≤ 10
16 | O=C(N[C@@H]1CC[C@@H](C(=O)Nc2cnn(Cc3ccccc3)c2)C1)c1[nH]c(=O)[nH]c(=O)c1O [Example 295, N-((1R,3R)-3-(1-benzyl-1H-pyrazol-4-ylcarbamoyl)cyclopentyl)-5-hydroxy-2,6-dioxo-1,2,3,6-tetrahydropyrimidine-4-carboxamide] |  | ≤ 10
17 | COc1cccc2c1CCC[C@H]2NC(=O)c1[nH]c(=O)[nH]c(=O)c1N [Example 103, (R)-5-amino-N-(5-methoxy-1,2,3,4-tetrahydronaphthalen-1-yl)-2,6-dioxo-1,2,3,6-tetrahydropyrimidine-4-carboxamide] |  | ≤ 10
18 | COc1cccc(N2CC(NC(=O)c3[nH]c(=O)[nH]c(=O)c3N)CC2=O)c1 (stereo not drawn) [Example 81, 5-amino-N-(1-(3-methoxyphenyl)-5-oxopyrrolidin-3-yl)-2,6-dioxo-1,2,3,6-tetrahydropyrimidine-4-carboxamide] |  | ≤ 10
19 | Nc1c(C(=O)NC2CCC(c3ccc(OCc4ccccc4)cc3)C2)[nH]c(=O)[nH]c1=O (stereo not drawn) [Example 106, 5-amino-N-(3-(4-(benzyloxy)phenyl)cyclopentyl)-2,6-dioxo-1,2,3,6-tetrahydropyrimidine-4-carboxamide] |  | ≤ 10
20 | Nc1c(C(=O)N[C@H]2CCCc3c(OCc4ccccc4F)cccc32)[nH]c(=O)[nH]c1=O [Example 97, (S)-5-amino-N-(5-(2-fluorobenzyloxy)-1,2,3,4-tetrahydronaphthalen-1-yl)-2,6-dioxo-1,2,3,6-tetrahydropyrimidine-4-carboxamide] |  | ≤ 10
21 | Nc1c(C(=O)N[C@H]2CC[C@@H](C(=O)N[C@@H]3CCCc4c(OCc5ccccc5)cccc43)C2)[nH]c(=O)[nH]c1=O [Example 136, 5-amino-N-((1S,3R)-3-((R)-5-(benzyloxy)-1,2,3,4-tetrahydronaphthalen-1-ylcarbamoyl)cyclopentyl)-2,6-dioxo-1,2,3,6-tetrahydropyrimidine-4-carboxamide] | 0.019 | ≤ 10
22 | Nc1c(C(=O)N[C@@H]2CCc3ccc(C(F)(F)F)cc32)[nH]c(=O)[nH]c1=O [Example 1, (R)-5-Amino-2,6-dioxo-N-(6-(trifluoromethyl)-2,3-dihydro-1H-inden-1-yl)-1,2,3,6-tetrahydropyrimidine-4-carboxamide] |  | ≤ 10
23 | Nc1c(C(=O)N[C@H]2CC[C@H](c3ccc(Cl)c(Cl)c3)C2)[nH]c(=O)[nH]c1=O [Example 69, 5-amino-N-((1S,3S)-3-(3,4-dichlorophenyl)cyclopentyl)-2,6-dioxo-1,2,3,6-tetrahydropyrimidine-4-carboxamide] |  | ≤ 10
